Data taken from PMC5622107, “Small molecule inhibition of cGAS reduces interferon expression in primary macrophages from autoimmune mice” (Nature Communications, 2017).
Like-named read-outs stand apart in the source and are kept apart here.

Columns and labels:
mouse cGAS = molecular target: T1, mouse cGAS (Mus musculus, UniProt Q8C6L5); experiment: RapidFire mass spectrometry (RF-MS) cGAS enzymatic assay, cGAMP product formation; type: biochemical; details: for inhibition at 12.5 µM: read-out: % inhibition at 12.5 µM; for effect of structural modification on cGAS inhibitory potency: compared with RU.365
T1 construct: recombinant full-length mouse cGAS in reaction buffer; His6-SUMO (N, cleaved yes); made in house; host or cells: E. coli BL21(DE3) RIL
Experimental: The liquid was collected at the well bottom using centrifugation for 30 s at 180×g. […] Plates were centrifuged for 30 s at 180×g to collect all liquid at the bottom of the wells. […] The reaction was stopped by addition of 65 µl of 0.5% (v/v) formic acid per well. The plates were centrifuged for 30 s at 180×g and sealed with a Velocity11 PlateLoc thermal plate sealer.
The solvent used for loading/washing process was an aqueous solution of 5 mM ammonium acetate, pH 10. […] Each sample of approximately 35 µl were aspirated from a 384-well plate and separated using a Graphitic carbon Type D cartridge. After each sample was loaded onto the cartridge it was washed for 4 s at 1.5 ml min^−1 using the aqueous solvent. ATP, GTP and cGAMP were eluted for 5 s using the organic solvent at a flow rate of 1.5 ml min^−1. The cartridge was then re-equilibrated with the aqueous solvent for 5 s at a flow rate of 1.5 ml min^−1. All samples were analyzed using a negative ionization mode in the mass spectrometer, with a gas temperature of 350 °C, nebulizer pressure of 35 psig, gas flow rate of 15 l min^−1. […] The Agilent RapidFire Integrator software was used to calculate the area under the curve (AUC) of the extracted ion counts for each analyte. Data points represent values of product formation. Catalytic rates expressed as percent product formation were calculated using the AUC of cGAMP and using the AUC’s of ATP and GTP to normalize for variations in the capacity of the solid phase extraction column during a screening run, as shown in the following formula: product formation (%) = [(AUCcGAMP × 100)/(AUCcGAMP + ½ AUCATP + ½ AUCGTP)].
To determine the percent inhibition of mouse cGAS the data was normalized against the positive control (column 24) and negative control (column 23). […] The quality of the screen was assessed by Z′ factor[57] calculated as follows: Z′ = 1−[3∗(standard deviation positive control + standard deviation negative control)/(average positive control—average negative control)].

45-bp dsDNA = experiment: DNA intercalation: acridine orange displacement from dsDNA by fluorescence polarization; type: binding; details: Supplementary Table 2; for % intercalation at 30 µM: acridine orange displacement compared to mitoxantrone; for Polarization: compound 30 µM
Experimental: Ten microliters of HEN buffer (10 mM HEPES pH 7.5, 1 mM EDTA pH 7.5, 100 mM NaCl) were dispensed per well using a Thermo Multidrop Combi dispenser (Thermo Scientific). The liquid was collected at the well bottom using centrifugation for 30 s at 180×g. […] The final concentration of compounds in the assay was 30 µM. […] The liquid was collected at the well bottom using centrifugation for 30 s at 180×g. […] The liquid was collected at the well bottom using centrifugation for 30 s at 180 × g and the plates were incubated for 30 min. Mitoxantrone, a known DNA intercalator was used at 50 µM as a positive control, while DMSO alone was used as negative control. FP was measured using a Biotek Synergy Neo plate reader. […] All FP values are expressed in millipolarization (mP) units. The mP values were calculated using the equation mP = 1000 × [(I S−I SB)−(I P−I PB)]/[I S—I SB) + (I P−I PB)], where I S and […] to the parallel and perpendicular emission intensity, respectively, and I SB and I SP corresponds to parallel emission intensity perpendicular emission intensity of the buffer, respectively. The experimental G-factor, defined as G = I S/I P, was set to 1.0 in all experiments.

[1] = Supplementary Table 2, batch of compounds stored in the screening library, read-out: IC50
[2] = Supplementary Table 2, compound 12.5 µM
[3] = Supplementary Table 3, analogs more potent than RU166365, read-out: IC50
[4] = Supplementary Table 4, analogs of RU166365, m-cGAS inhibition, read-out: IC50

T1 sequence (Q8C6L5 whole entry): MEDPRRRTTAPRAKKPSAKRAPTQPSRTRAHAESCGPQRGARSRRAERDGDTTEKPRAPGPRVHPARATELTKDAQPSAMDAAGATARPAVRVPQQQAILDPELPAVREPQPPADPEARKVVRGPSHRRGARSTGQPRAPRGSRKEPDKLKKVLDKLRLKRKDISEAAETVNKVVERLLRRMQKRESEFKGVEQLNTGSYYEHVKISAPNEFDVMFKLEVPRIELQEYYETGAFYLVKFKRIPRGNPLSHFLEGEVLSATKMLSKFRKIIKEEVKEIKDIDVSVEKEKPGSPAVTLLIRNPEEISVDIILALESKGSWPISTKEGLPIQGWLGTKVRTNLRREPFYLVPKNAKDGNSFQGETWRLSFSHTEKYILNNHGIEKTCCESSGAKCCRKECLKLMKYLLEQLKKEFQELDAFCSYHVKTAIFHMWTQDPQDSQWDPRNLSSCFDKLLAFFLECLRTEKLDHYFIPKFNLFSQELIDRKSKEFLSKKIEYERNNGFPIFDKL

Row | Structure (SMILES) | IC50 (mouse cGAS; [1]) [µM] | inhibition at 12.5 µM (mouse cGAS; [2]) [%] | Polarization (45-bp dsDNA) [mP] | % intercalation at 30 µM (45-bp dsDNA) [%] | other results
1 | Oc1c(Cl)cc(Cl)c(Cl)c1Cc1c(O)c(Cl)cc(Cl)c1Cl [RU161] |  |  | 108 | 69.6 | IC50 (mouse cGAS): 0.39 µM; inhibition at 12.5 µM (mouse cGAS): 93%
2 | CC(C)OC(=O)C(C#N)=Cc1ccc([N+](=O)[O-])o1 [RU94102] | 8.14 | 64 | 267 | -8.1 | 
3 | Cc1nc2nc(C)c(Br)c(O)n2n1 [RU6753] | 7.99 | 69 | 252 | -0.5 | 
4 | CC[C@@]1(O)C[C@H](O[C@H]2C[C@H](N(C)C)[C@H](O)[C@H](C)O2)c2c(cc3c(c2O)C(=O)c2c(O)cccc2C3=O)[C@H]1C(=O)OC [RU891] | 1.42 | 98 | 65 | 90.6 | 
5 | CCOc1ccc2nc3cc(N)ccc3c(N)c2c1 [RU1667] | 1.01 |  | 139 | 54.5 | % inhibition at 12.5 µM (mouse cGAS; [2]): 92%
6 | CCC1=NN2C(=N)/C(=C/c3ccc(O)cc3)C(=O)N=C2S1 [RU169196] | 4.25 | 89 | 266 | -7.5 | 
7 | C[n+]1cc2c3c(ccc2c2ccc4cc5c(cc4c21)OCO5)OCO3 [RU871] | 3.37 | 85 | 56 | 95.0 | 
8 | S=c1[nH]nc(-c2sc3ccccc3c2Cl)o1 [RU3433] | 6.12 | 92 | 288 |  | 
9 | O=C(O)c1cc(O)c2c(c1)[C@@H]([C@H]1c3cc(C(=O)O)cc(O)c3C(=O)c3c(O[C@H]4O[C@H](CO)[C@@H](O)[C@H](O)[C@H]4O)cccc31)c1cccc(O[C@H]3O[C@H](CO)[C@@H](O)[C@H](O)[C@H]3O)c1C2=O [RU646] | 8.76 | 82 | 278 | -13.5 | 
10 | COc1cccc2c1C(=O)c1c(O)c3c(c(O)c1C2=O)C[C@@](O)(C(=O)CO)C[C@@H]3O[C@H]1C[C@H](N)[C@H](O)[C@H](C)O1 [RU24114] |  | 96 | 53 |  | IC50 (mouse cGAS): 0.82 µM
11 | NC(=O)N1C(=O)/C(=C(\O)c2cccs2)c2cc(Cl)ccc21 [RU187170] | 6.09 | 70 | 276 |  | 
12 | N=C(N)NN=C1C=CC(=NNC(N)=S)C=C1 [RU187428] |  | 79 | 164 |  | IC50 (mouse cGAS): 9.93 µM
13 | CC[n+]1c(-c2ccccc2)c2cc(N)ccc2c2ccc(N)cc21 [RU662] | 0.43 | 97 | 42 | 101.9 | 
14 | N#Cc1ccc(/C=C2\CS(=O)(=O)c3c(F)cccc3C2=O)cc1 [RU198755] | 6.33 | 63 | 263 | -6.2 | 
15 | O=[N+]([O-])c1cc([As](=O)(O)O)ccc1O [RU297] |  |  | 271 | -9.8 | 
16 | O=C(O)COc1cc(Cl)c(Cl)cc1Cl [RU1535] | 0.55 | 98 | 244 | 3.4 | 
17 | O=[N+]([O-])c1ccc(O)c([N+](=O)[O-])c1 [RU803] |  |  | 260 | -4.7 | IC50 (mouse cGAS): 0.87 µM; inhibition at 12.5 µM (mouse cGAS): 96%
18 | Cc1nn(-c2nc3ccccc3[nH]2)c(O)c1C1OC(=O)c2cc(Br)ccc21 (stereo not drawn) [RU320469] |  |  |  |  | IC50 (mouse cGAS; [3]): 1.32 µM; effect of structural modification on cGAS inhibitory potency (mouse cGAS): only minor variations in potency
19 | Cc1nn(-c2nc3ccccc3[nH]2)c(O)c1C1OC(=O)c2c(Br)cccc21 (stereo not drawn) [RU320463] |  |  |  |  | IC50 (mouse cGAS; [4]): 2.76 µM
20 | Cc1nn(-c2ncc(-c3ccccc3)[nH]2)c(O)c1C1OC(=O)c2ccccc21 (stereo not drawn) [RU320574] |  |  |  |  | IC50 (mouse cGAS; [4]): > 25 µM
21 | COc1ccc2nc(-n3nc(C)c(C4OC(=O)c5ccccc54)c3O)[nH]c2c1 (stereo not drawn) [RU320459] |  |  |  |  | IC50 (mouse cGAS; [4]): 7.34 µM
22 | Cc1nn(-c2nc3ccccc3s2)c(O)c1C1NC(=O)c2ccccc21 (stereo not drawn) [RU320466] |  |  |  |  | IC50 (mouse cGAS; [4]): > 25 µM
23 | Cc1nn(-c2nc3cccc(Br)c3[nH]2)c(O)c1C1OC(=O)c2ccccc21 (stereo not drawn) [RU320467] |  |  |  |  | IC50 (mouse cGAS; [3]): 0.38 µM; effect of structural modification on cGAS inhibitory potency (mouse cGAS): increased inhibitory potency
24 | Cc1nn(-c2nc3cccc(C)c3[nH]2)c(O)c1C1OC(=O)c2ccccc21 (stereo not drawn) [RU320519] |  |  |  |  | IC50 (mouse cGAS; [3]): 1.16 µM; effect of structural modification on cGAS inhibitory potency (mouse cGAS): increased inhibitory potency
25 | COc1cccc2nc(-n3nc(C)c(C4OC(=O)c5ccccc54)c3O)[nH]c12 (stereo not drawn) [RU320460] |  |  |  |  | IC50 (mouse cGAS; [4]): 5.61 µM

The next lines start with results.

Row | IC50 (mouse cGAS; [1]) [µM] | inhibition at 12.5 µM (mouse cGAS; [2]) [%] | Polarization (45-bp dsDNA) [mP] | Structure (SMILES) | % intercalation at 30 µM (45-bp dsDNA) [%] | other results
26 | 5.38 | 72 | 271 | O=C(CCl)Nc1nc(-c2c[nH]c3ccccc23)cs1 [RU114757] | -10.1 | IC50 (mouse cGAS; Fig. 1e, four prioritized screening hits, confirmed with independent lots of compound, read-out: IC50): 1.4 µM
27 | 6.49 | 90 | 255 | O=c1[nH]n2c(=O)c3ccccc3nc2c2ccccc12 [RU5004] | -2.1 | 
28 | 7.47 | 76 | 239 | Cc1nnc(NC(=O)c2ccc(S(=O)(=O)Nc3cccc(C(F)(F)F)c3)o2)s1 [RU174368] | 5.6 | 
29 | 4.44 | 91 | 251 | COC(=O)C1=NN2C(=NS(=O)(=O)c3ccccc32)N1 [RU209189] | 0.0 | 
30 | 0.58 | 95 | 256 | N#Cc1cc(I)c(O)c([N+](=O)[O-])c1 [RU187299] | -2.8 | 
31 | 1.27 | 94 | 253 | OCc1cn(-c2ccccc2Cl)nn1 [RU219771] | -1.3 | 
32 |  |  | 248 | CC(C)c1ccc2oc3nc(N)c(C(=O)O)cc3c(=O)c2c1 [RU185491] | 1.5 | 
33 | 6.8 | 66 | 85 | CCN(CC)CCNc1ccc(CO)c2sc3ccccc3c(=O)c12 [RU869] | 81.2 | 
34 | 2.83 | 78 | 145 | Nc1c2ccccc2nc2ccccc12 [RU431] |  | 
35 | 4.68 | 67 | 272 | CS(=O)(=O)c1ncc2c(n1)c(=O)c(C#N)c1[nH]c3ccccc3c(=O)n12 [RU207488] |  | 
36 | 6.42 | 62 | 254 | CCOC(=O)c1n[nH]c2c1C(=O)N(CC)C2=O [RU4893] | -1.4 | 
37 | 9.09 | 71 | 253 | O=C(Nc1nncs1)c1cn(-c2ccccc2Br)nn1 [RU191669] | -1.0 | 
38 | 6.62 | 86 | 274 | O=C(Nc1ncc([N+](=O)[O-])s1)c1cccs1 [RU187339] |  | 
39 | 6.76 | 89 | 270 | O=c1cc(CCn2cccn2)nc(-c2ccc(CN3CCC[C@@H]3CO)cc2)[nH]1 [RU234543] | -9.3 | 
40 | 0.72 | 94 | 41 | O=C1c2c(O)ccc(O)c2C(=O)c2c(NCCNCCO)ccc(NCCNCCO)c21 [RU627] | 102.5 | 
